Measured values taken from patent publication US20170348306A1, “METHODS OF TREATING CANCER” (GLAXOSMITHKLINE LLC, priority 2011, published 2017).

Assays:
Experiment in all cases: 6 day proliferation assay (assay 1)
Assay type in all cases: cell-based
Daudi = conditions: Homo sapiens, 144 h, 6 days, EZH2 WT, read-out: Compound A gIC50
Method: (§1) Cells were cultured in appropriate medium in flasks to 80-100% confluency. Cells were harvested, counted and plated at a pre-determined optimal seeding density ranging from 50 cells per well to 4000 cells per well depending on the growth characteristics of individual cell lines in 384-well tissue culture plates (Greiner #781090). Plates were then incubated overnight at 37° C., 5% CO2. Cells were treated with compound using a 20 point 1:2 fold dilution scheme with a final concentration of 0.15% DMSO. One column per plate contained cells treated with 0.15% DMSO only, and one column contained no cells to serve as background. Plates were incubated at 37° C., 5% CO2 for 6 days. A time zero (t0) reading was taken on the day of compound addition. To develop the plates, 25 μL of Cell Titer Glo (Promega #G7572) was added to each well and incubated at room temperature for 12 minutes. Luminescence was measured on the Tecan Safire2.
(§2) Data were analyzed using Assay Client software. Dose response curves were generated based on percent of growth compared to t0. Growth IC50 values were calculated using a 4 parameter logistic model.
(§3) In addition, further optimization of the EZH2 inhibition assay

BC-1 = conditions: Homo sapiens, BC1, 144 h, 6 days, EZH2 WT, read-out: Compound A gIC50
Method: as §1, §2, §3

Toledo = conditions: Homo sapiens, 144 h, 6 days, EZH2 WT, read-out: Compound A gIC50
Method: as §1, §2, §3

Karpass422 = conditions: Homo sapiens, 144 h, 6 days, EZH2 Y641N, read-out: Compound A gIC50
Method: as §1, §2, §3

DG75 = conditions: Homo sapiens, DG-75, 144 h, 6 days, EZH2 WT, read-out: Compound A gIC50
Method: as §1, §2, §3

Pfeiffer = conditions: Homo sapiens, 144 h, 6 days, EZH2 A677G, read-out: Compound A gIC50
Method: as §1, §2, §3

1A2 = conditions: Homo sapiens, 144 h, 6 days, EZH2 WT, read-out: Compound A gIC50
Method: as §1, §2, §3

OCI-LY-19 = conditions: Homo sapiens, OCI-LY19, 144 h, 6 days, EZH2 Y641N, read-out: Compound A gIC50
Method: as §1, §2, §3

U937 = conditions: Homo sapiens, U-937, 144 h, 6 days, EZH2 WT, read-out: Compound A gIC50
Method: as §1, §2, §3

CROAP2 = conditions: Homo sapiens, CRO-AP2, 144 h, 6 days, EZH2 WT, read-out: Compound A gIC50
Method: as §1, §2, §3

P3HR1 = conditions: Homo sapiens, P3HR-1, 144 h, 6 days, EZH2 WT, read-out: Compound A gIC50
Method: as §1, §2, §3

Hs445 = conditions: Homo sapiens, Hs 445, 144 h, 6 days, EZH2 WT, read-out: Compound A gIC50
Method: as §1, §2, §3

HDMyZ = conditions: Homo sapiens, 144 h, 6 days, EZH2 WT, read-out: Compound A gIC50
Method: as §1, §2, §3

SKM1 = conditions: Homo sapiens, SKM-1, 144 h, 6 days, EZH2 Y641C, read-out: Compound A gIC50
Method: as §1, §2, §3

CROAP5 = conditions: Homo sapiens, CRO-AP5, 144 h, 6 days, EZH2 WT, read-out: Compound A gIC50
Method: as §1, §2, §3

REC1 = conditions: Homo sapiens, 144 h, 6 days, EZH2 WT, read-out: Compound A gIC50
Method: as §1, §2, §3

BC-2 = conditions: Homo sapiens, 144 h, 6 days, EZH2 WT, read-out: Compound A gIC50
Method: as §1, §2, §3

NAMALWA = conditions: Homo sapiens, 144 h, 6 days, EZH2 WT, read-out: Compound A gIC50
Method: as §1, §2, §3

RPMI-6666 = conditions: Homo sapiens, 144 h, 6 days, EZH2 WT, read-out: Compound A gIC50
Method: as §1, §2, §3

HT = conditions: Homo sapiens, 144 h, 6 days, EZH2 WT, read-out: Compound A gIC50
Method: as §1, §2, §3

MJ = conditions: Homo sapiens, 144 h, 6 days, EZH2 WT, read-out: Compound A gIC50
Method: as §1, §2, §3

JM1 = conditions: Homo sapiens, 144 h, 6 days, EZH2 WT, read-out: Compound A gIC50
Method: as §1, §2, §3

L428 = conditions: Homo sapiens, L-428, 144 h, 6 days, EZH2 Y641S, read-out: Compound A gIC50
Method: as §1, §2, §3

SU-DHL-10 = conditions: Homo sapiens, SU-DHL10, 144 h, 6 days, EZH2 Y641F, read-out: Compound A gIC50
Method: as §1, §2, §3

Farage = conditions: Homo sapiens, 144 h, 6 days, EZH2 WT, read-out: Compound A gIC50
Method: as §1, §2, §3

Jiyoye = conditions: Homo sapiens, 144 h, 6 days, EZH2 WT, read-out: Compound A gIC50
Method: as §1, §2, §3

RCK8 = conditions: Homo sapiens, 144 h, 6 days, EZH2 WT, read-out: Compound A gIC50
Method: as §1, §2, §3

SU-DHL-4 = conditions: Homo sapiens, 144 h, 6 days, EZH2 Y641S, read-out: Compound A gIC50
Method: as §1, §2, §3

DOHH2 = conditions: Homo sapiens, DOHH-2, 144 h, 6 days, EZH2 WT, read-out: Compound A gIC50
Method: as §1, §2, §3

DB = conditions: Homo sapiens, 144 h, 6 days, EZH2 Y641N, read-out: Compound A gIC50
Method: as §1, §2, §3

RL = conditions: Homo sapiens, 144 h, 6 days, EZH2 Y641N, read-out: Compound A gIC50
Method: as §1, §2, §3

Ramos = conditions: Homo sapiens, 144 h, 6 days, EZH2 WT, read-out: Compound A gIC50
Method: as §1, §2, §3

WSU-DLCL-2 = conditions: Homo sapiens, WSUDLCL2, 144 h, 6 days, EZH2 Y641F, read-out: Compound A gIC50
Method: as §1, §2, §3

BC-3 = conditions: Homo sapiens, 144 h, 6 days, EZH2 WT, read-out: Compound A gIC50
Method: as §1, §2, §3

HsSullan = conditions: Homo sapiens, 144 h, 6 days, EZH2 WT, read-out: Compound A gIC50
Method: as §1, §2, §3

CA46 = conditions: Homo sapiens, 144 h, 6 days, EZH2 WT, read-out: Compound A gIC50
Method: as §1, §2, §3

Raji = conditions: Homo sapiens, 144 h, 6 days, EZH2 WT, read-out: Compound A gIC50
Method: as §1, §2, §3

SU-DHL-5 = conditions: Homo sapiens, 144 h, 6 days, EZH2 WT, read-out: Compound A gIC50
Method: as §1, §2, §3

IC50 (Daudi): 13.4 µM | IC50 (Karpass422): 1.32 µM | IC50 (OCI-LY-19): 4.48 µM | IC50 (U937): 7.9 µM | IC50 (SKM1): 6.16 µM | IC50 (SU-DHL-10): 0.324 µM | IC50 (SU-DHL-4): 14 µM | IC50 (Ramos): 3.51 µM | IC50 (Raji): 6.14 µM | IC50 (SU-DHL-5): 3.44 µM
Structure (SMILES): CCCc1cc(C)[nH]c(=O)c1CNC(=O)c1cc(-c2ccc(N3CCN(C)CC3)nc2)cc2c1cnn2C(C)C [Compound A, 1-(1-methylethyl)-N-[(6-methyl-2-oxo-4-propyl-1,2-dihydro-3-pyridinyl)methyl]-6-[6-(4-methyl-1-piperazinyl)-3-pyridinyl]-1H-indazole-4-carboxamide]
IC50 (BC-1): 8.82 µM | IC50 (Toledo): 21.8 µM | IC50 (DG75): 6.23 µM | IC50 (Pfeiffer): 0.189 µM | IC50 (1A2): 9.26 µM | IC50 (CROAP2): 11.3 µM | IC50 (P3HR1): 7.8 µM | IC50 (Hs445): 1.57 µM | IC50 (HDMyZ): 7.21 µM | IC50 (CROAP5): 6.16 µM | IC50 (REC1): 2.91 µM | IC50 (BC-2): 2.18 µM | IC50 (NAMALWA): 6.22 µM | IC50 (RPMI-6666): 3.1 µM | IC50 (HT): 3.71 µM | IC50 (MJ): 3.28 µM | IC50 (JM1): 6.66 µM | IC50 (L428): 3.1 µM | IC50 (Farage): 4.79 µM | IC50 (Jiyoye): 2.47 µM | IC50 (RCK8): 5.56 µM | IC50 (DOHH2): 6.43 µM | IC50 (DB): 9.5 µM | IC50 (RL): 4.66 µM | IC50 (WSU-DLCL-2): 3.1 µM | IC50 (BC-3): 5.28 µM | IC50 (HsSullan): 3.94 µM | IC50 (CA46): 8.63 µM
